# Measured values from patent US9138447B2, “Antimicrobial agent and method for the production thereof” (UNIVERSITY COLLEGE CARDIFF CONSULTANTS LTD., priority 2008, dated 2015).
# Tested on: methicillin resistant Staphylococcus aureus (MRSA)
# Experiment: Growth inhibition of MRSA
# Format: cell-based
# Source text: Mupirocin (Pseudomonic acid A, or Bactroban) is the frontline topical antibiotic used to combat skin infections with gram positive bacteria and is also used in the eradication of MRSA from infected people. It was originally produced as Bactroban by GlaxoSmithKline, but now it is available generically within a number of different commercial formulations. MRSA strain 52 is susceptible to both the P. fluorescens mupirocin (Panel A) and Vietnamycin (BVAS; Panel B). However, MRSA strain 49 is representative of a number of emerging S. aureus strains that are resistant to mupirocin (Panel C).
smiles,measurement,setting,value
"C/C(=C\C(=O)OCCCCCCCCC(=O)O)C[C@@H]1OC[C@H](C[C@@H]2O[C@H]2[C@@H](C)[C@H](C)O)[C@@H](O)[C@H]1O [mupirocin, Mupirocin]",Growth inhibition of mupirocin resistant MRSA (strain 49),mupirocin resistant strain,resistant
same,Growth inhibition of MRSA strain 52,"mupirocin susceptible strain, producer bacterium overlay",susceptible
